In patent publication US10023557B2 (LifeSci Pharmaceuticals, Inc., priority 2015, dated 2018):
Each block holds one compound with its values, some of them ahead of it.

Molecular target: human plasma kallikrein (Homo sapiens (Human), UniProt P03952)
Assay: In vitro enzyme inhibition of human plasma kallikrein (PFR-AMC cleavage)
Type: biochemical
Conditions: Pro-Phe-Arg-AMC substrate, 37° C., read-out: hPK IC50
Experimental: The ability of the compounds disclosed herein to inhibit human plasma kallikrein activity was quantified according to the procedures below.
A 10 mM solution of the test compound was made in DMSO. […] A control tube containing only DMSO is included. 16 μL of each compound test solution was combined with 384 μL of assay buffer (50 mM Tris-HCl pH 7.5, 150 mM NaCl, 0.01% Triton X-100) to yield a “4× test compound buffer stock”.
These solutions are hereby referred to as 4× hPK and 2×PFR-AMC, respectively.
50 μL was removed from this mixture and placed into duplicate wells on a Microfluor 1Black U-bottom microtiter plate (Thermo Scientific). This plate was incubated for 5 minutes at 37° C. To each well, 50 μL of pre-warmed 2×PFR-AMC was added to start the enzymatic reaction. Cleavage of PFR-AMC was monitored in a Biotek Synergy H4 reader set at 37° C. Readings are taken every 43 seconds for 1 hour. […] The IC50 is calculated using the Gen5 (Biotek Instruments).
The ability of the compounds in Table 3 to inhibit human plasma kallikrein activity was determined.

Chain of human plasma kallikrein (P03952 391-638): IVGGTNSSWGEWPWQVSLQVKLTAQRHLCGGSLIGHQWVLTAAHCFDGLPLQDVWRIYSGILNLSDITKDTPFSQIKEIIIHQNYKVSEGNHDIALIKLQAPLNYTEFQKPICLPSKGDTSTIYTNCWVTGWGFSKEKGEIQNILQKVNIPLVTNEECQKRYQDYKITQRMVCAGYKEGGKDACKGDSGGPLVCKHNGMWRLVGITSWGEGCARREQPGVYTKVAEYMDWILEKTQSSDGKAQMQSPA
Chain of human plasma kallikrein (P03952 20-390 partner): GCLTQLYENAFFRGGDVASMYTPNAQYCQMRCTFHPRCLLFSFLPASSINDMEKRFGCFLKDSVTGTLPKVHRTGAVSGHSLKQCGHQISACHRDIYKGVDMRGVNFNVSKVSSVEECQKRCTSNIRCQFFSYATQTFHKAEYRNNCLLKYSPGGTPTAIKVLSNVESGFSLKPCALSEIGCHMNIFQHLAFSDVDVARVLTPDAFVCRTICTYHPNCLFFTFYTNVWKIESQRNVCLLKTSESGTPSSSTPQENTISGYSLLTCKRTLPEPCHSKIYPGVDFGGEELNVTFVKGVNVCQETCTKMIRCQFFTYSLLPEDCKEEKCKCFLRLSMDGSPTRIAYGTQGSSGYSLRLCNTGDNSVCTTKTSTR

Compound: Cc1cc(C(C)N)nc(C)c1CNC(=O)c1ccnc(Cc2ccc3ncc(Cl)cc3c2)c1 (stereo not drawn) [Example 173, N-((6-(1-aminoethyl)-2,4-dimethylpyridin-3-yl)methyl)-2-((3-chloroquinolin-6-yl)methyl)isonicotinamide]
IC50: 1000 to 10000 nM

Compound: COCCNc1ccc(CNC(=O)c2ccnc(Cc3ccc4ncc(Cl)cc4c3)c2)c(C)n1 [Example 242, 2-((3-chloroquinolin-6-yl)methyl)-N-((6-((2-methoxyethyl)amino)-2-methylpyridin-3-yl)methyl)isonicotinamide]
IC50: 100 to 1000 nM

Compound: Cc1nc(N)ccc1CNC(=O)c1ccnc(Cc2cnc3cc(F)c(Cl)cc3c2)c1 [Example 227, N-((6-amino-2-methylpyridin-3-yl)methyl)-2-((6-chloro-7-fluoroquinolin-3-yl)methyl)isonicotinamide]
IC50: < 100 nM

Compound: Cc1nc(N)ccc1CNC(=O)c1ccnc(Cc2cc(N)c3ncc(Cl)cc3c2)c1 [Example 218, N-((6-amino-2-methylpyridin-3-yl)methyl)-2-((8-amino-3-chloroquinolin-6-yl)methyl)isonicotinamide]
IC50: < 100 nM

Compound: Cc1c(CNC(=O)c2ccnc(Cc3ccc4ncc(Cl)cc4c3)c2)cnc2[nH]cc(Cl)c12 [Example 189, N-((3-chloro-4-methyl-1H-pyrrolo[2,3-b]pyridin-5-yl)methyl)-2-((3-chloroquinolin-6-yl)methyl)isonicotinamide]
IC50: 100 to 1000 nM

Compound: O=C(NCc1nnc2ccc(Cl)cn12)c1ccnc(Cc2ccc3ncc(Cl)cc3c2)c1 [Example 154, N-((6-chloro-[1,2,4]triazolo[4,3-a]pyridin-3-yl)methyl)-2-((3-chloroquinolin-6-yl)methyl)isonicotinamide]
IC50: 100 to 1000 nM

Compound: Cc1nc2c(cc1CNC(=O)c1ccnc(Cc3ccc4ncc(Cl)cc4c3)c1)CCN2 [Example 161, 2-((3-chloroquinolin-6-yl)methyl)-N-((6-methyl-2,3-dihydro-1H-pyrrolo[2,3-b]pyridin-5-yl)methyl)isonicotinamide]
IC50: 100 to 1000 nM

Compound: Nc1ncc2cc(CNC(=O)c3ccnc(Cc4ccc5ncc(Cl)cc5c4)c3)ccn12 [Example 187, N-((3-aminoimidazo[1,5-a]pyridin-7-yl)methyl)-2-((3-chloroquinolin-6-yl)methyl)isonicotinamide]
IC50: 100 to 1000 nM

Compound: Cc1cnc2c(C(C)(C)O)cc(Cc3cc(C(=O)NCc4ccc5[nH]cc(Cl)c5c4F)ccn3)cc2c1 [Example 315, N-((3-chloro-4-fluoro-1H-indol-5-yl)methyl)-2-((8-(2-hydroxypropan-2-yl)-3-methylquinolin-6-yl)methyl)isonicotinamide]
IC50: < 100 nM

Compound: O=C(NCc1n[nH]c2ccc(Cl)cc12)c1ccnc(Cc2ccc3ncc(C(F)(F)F)cc3c2)c1 [Example 233, N-((5-chloro-1H-indazol-3-yl)methyl)-2-((3-(trifluoromethyl)quinolin-6-yl)methyl)isonicotinamide]
IC50: < 100 nM

Second part, the compound after the results:

IC50: 100 to 1000 nM
Compound: Nc1cnc2ccc(Cc3cc(C(=O)NCc4ccc5c(N)nccc5c4)ccn3)cc2c1 [Example 298, N-((1-aminoisoquinolin-6-yl)methyl)-2-((3-aminoquinolin-6-yl)methyl)isonicotinamide]

IC50: 100 to 1000 nM
Compound: Cc1nc(N)ccc1CNC(=O)c1ccnc(Cc2ccc3ncc(C(C)O)cc3c2)c1 (stereo not drawn) [Example 263, N-((6-amino-2-methylpyridin-3-yl)methyl)-2-((3-(1-hydroxyethyl)quinolin-6-yl)methyl)isonicotinamide]

IC50: 1000 to 10000 nM
Compound: O=C(NCc1cnc2[nH]cc(Cl)c2c1)c1ccnc(Cc2ccc3ncc(N4CCOCC4)cc3c2)c1 [Example 294, N-((3-chloro-1H-pyrrolo[2,3-b]pyridin-5-yl)methyl)-2-((3-morpholinoquinolin-6-yl)methyl)isonicotinamide]

IC50: 100 to 1000 nM
Compound: Cc1cc(N)nc(C)c1CNC(=O)c1ccnc(C(=O)c2ccc3ncc(Cl)cc3c2)c1 [Example 274, N-((6-amino-2,4-dimethylpyridin-3-yl)methyl)-2-(3-chloroquinoline-6-carbonyl)isonicotinamide]

IC50: < 100 nM
Compound: Cc1cnc2c(C(C)(C)O)cc(Cc3cc(C(=O)NCc4ccc5c(N)nccc5c4)ccn3)cc2c1 [Example 319]
